Experimental data taken from ChEMBL document CHEMBL1146202, “First report of plasmid-mediated qnrA1 in a ciprofloxacin-resistant Escherichia coli strain in Latin America” (2007).
Values after ≈ are worked out from the molar mass of the structure shown.

How the values were obtained:
Format in all cases: functional
Escherichia coli [1] = assay: Antimicrobial activity against streptomycin-resistant Escherichia coli J53 transconjugant with qnrA1 producing urinary specimen isolate 13.52 by agar dilution method
Escherichia coli [2] = assay: Antimicrobial activity against streptomycin-resistant Escherichia coli J53 by agar dilution method
Escherichia coli [3] = assay: Antimicrobial activity against Escherichia coli qnrA1 producing urinary specimen isolate 13.52 by agar dilution method; conditions: Urine

GENTAMICIN
MIC (Escherichia coli [1]; Urine): 2 µg/mL | MIC (Escherichia coli [2]): 0.125 µg/mL | MIC (Escherichia coli [3]): 2 µg/mL

CO/N=C(\C(=O)N[C@@H]1C(=O)N2C(C(=O)[O-])=C(C[N+]3(C)CCCC3)CS[C@H]12)c1csc(N)n1 [CEFEPIME]
MIC (Escherichia coli [1]; J53, Urine): 0.5 µg/mL (≈ 1.04 µM) | MIC (Escherichia coli [2]): 0.06 µg/mL (≈ 0.125 µM) | MIC (Escherichia coli [3]): 0.5 µg/mL (≈ 1.04 µM)

CO/N=C(\C(=O)N[C@@H]1C(=O)N2C(C(=O)O)=C(CSc3nc(=O)c(O)nn3C)CS[C@H]12)c1csc(N)n1 (stereo in doubt) [CEFTRIAXONE]
MIC (Escherichia coli [1]; J53, Urine): 8 µg/mL (≈ 14.4 µM) | MIC (Escherichia coli [2]): 0.047 µg/mL (≈ 0.0847 µM) | MIC (Escherichia coli [3]): 8 µg/mL (≈ 14.4 µM)

CC1(C)S[C@@H]2[C@H](NC(=O)[C@H](N)c3ccccc3)C(=O)N2[C@H]1C(=O)O [AMPICILLIN]
MIC (Escherichia coli [1]; J53, Urine): > 256 µg/mL | MIC (Escherichia coli [2]): 8 µg/mL (≈ 22.9 µM) | MIC (Escherichia coli [3]): > 256 µg/mL

CN[C@@H]1[C@H](O[C@H]2[C@H](O[C@H]3[C@H](O)[C@@H](O)[C@H](N=C(N)N)[C@@H](O)[C@@H]3N=C(N)N)O[C@@H](C)[C@]2(O)C=O)O[C@@H](CO)[C@H](O)[C@H]1O (stereo in doubt) [STREPTOMYCIN]
MIC (Escherichia coli [1]; J53, Urine): > 1020 µg/mL | MIC (Escherichia coli [2]): > 1020 µg/mL | MIC (Escherichia coli [3]): 192 µg/mL (≈ 330 µM)

C[C@@H](O)[C@H]1C(=O)N2C(C(=O)O)=C(S[C@@H]3CN[C@H](C(=O)N(C)C)C3)[C@H](C)[C@H]12 [MEROPENEM]
MIC (Escherichia coli [1]; J53, Urine): ≤ 0.025 µg/mL | MIC (Escherichia coli [2]): ≤ 0.025 µg/mL | MIC (Escherichia coli [3]): ≤ 0.025 µg/mL

NC[C@H]1O[C@H](O[C@H]2[C@H](O)[C@@H](O[C@H]3O[C@H](CO)[C@@H](O)[C@H](N)[C@H]3O)[C@H](N)C[C@@H]2N)[C@H](O)[C@@H](O)[C@@H]1O [KANAMYCIN]
MIC (Escherichia coli [1]; J53, Urine): 128 µg/mL (≈ 264 µM) | MIC (Escherichia coli [2]): 8 µg/mL (≈ 16.5 µM) | MIC (Escherichia coli [3]): 32 µg/mL (≈ 66 µM)

CC(C)(O/N=C(\C(=O)N[C@@H]1C(=O)N2C(C(=O)[O-])=C(C[n+]3ccccc3)CS[C@H]12)c1csc(N)n1)C(=O)O [CEFTAZIDIME]
MIC (Escherichia coli [1]; J53, Urine): 128 µg/mL (≈ 234 µM) | MIC (Escherichia coli [2]): 0.25 µg/mL (≈ 0.457 µM) | MIC (Escherichia coli [3]): 64 µg/mL (≈ 117 µM)

CCn1cc(C(=O)O)c(=O)c2ccc(C)nc21 [NALIDIXIC ACID]
MIC (Escherichia coli [1]; J53, Urine): 128 µg/mL (≈ 551 µM) | MIC (Escherichia coli [2]): 4 µg/mL (≈ 17.2 µM) | MIC (Escherichia coli [3]): 256 µg/mL (≈ 1100 µM)

O=C(N[C@H](CO)[C@H](O)c1ccc([N+](=O)[O-])cc1)C(Cl)Cl [CHLORAMPHENICOL]
MIC (Escherichia coli [1]; J53, Urine): 48 µg/mL (≈ 149 µM) | MIC (Escherichia coli [2]): 8 µg/mL (≈ 24.8 µM) | MIC (Escherichia coli [3]): > 256 µg/mL

CO[C@@]1(NC(=O)Cc2cccs2)C(=O)N2C(C(=O)O)=C(COC(N)=O)CS[C@@H]21 [CEFOXITIN]
MIC (Escherichia coli [1]; J53, Urine): 256 µg/mL (≈ 599 µM) | MIC (Escherichia coli [2]): 8 µg/mL (≈ 18.7 µM) | MIC (Escherichia coli [3]): 32 µg/mL (≈ 74.9 µM)

C[C@H]1COc2c(N3CCN(C)CC3)c(F)cc3c(=O)c(C(=O)O)cn1c23.C[C@H]1COc2c(N3CCN(C)CC3)c(F)cc3c(=O)c(C(=O)O)cn1c23.O [LEVOFLOXACIN]
MIC (Escherichia coli [1]; J53, Urine): 1.5 µg/mL | MIC (Escherichia coli [2]): 0.064 µg/mL | MIC (Escherichia coli [3]): 8 µg/mL

COc1c(N2CCNC(C)C2)c(F)cc2c(=O)c(C(=O)O)cn(C3CC3)c12 (stereo not given) [GATIFLOXACIN]
MIC (Escherichia coli [1]; J53, Urine): 1 µg/mL (≈ 2.66 µM) | MIC (Escherichia coli [2]): 0.012 µg/mL (≈ 0.032 µM) | MIC (Escherichia coli [3]): 8 µg/mL (≈ 21.3 µM)

NCC[C@H](O)C(=O)N[C@@H]1C[C@H](N)[C@@H](O[C@H]2O[C@H](CN)[C@@H](O)[C@H](O)[C@H]2O)[C@H](O)[C@H]1O[C@H]1O[C@H](CO)[C@@H](O)[C@H](N)[C@H]1O [AMIKACIN]
MIC (Escherichia coli [1]; J53, Urine): 2 µg/mL (≈ 3.42 µM) | MIC (Escherichia coli [2]): 2 µg/mL (≈ 3.42 µM) | MIC (Escherichia coli [3]): 4 µg/mL (≈ 6.83 µM)

CC(O)[C@H]1C(=O)N2C(C(=O)O)=C(SCCNC=N)C[C@H]12 (single isomer, unassigned) [IMIPENEM ANHYDROUS]
MIC (Escherichia coli [1]; J53, Urine): ≤ 0.025 µg/mL | MIC (Escherichia coli [2]): ≤ 0.025 µg/mL | MIC (Escherichia coli [3]): ≤ 0.025 µg/mL
